Laboratory results published in paper PMC7190660, “Standardised comparison of limonene-derived monoterpenes identifies structural determinants of anti-inflammatory activity” (Scientific Reports, 2020).
Values joined by “and” are separate entries in the source; they are usually repeats but may differ in a detail not shown here. Equal entries are not always repeated. “Also recorded” adds a separate entry of the source.

Assays:
[1] = test system: LPS-induced NO production in Raw 264.7 macrophages; assay: Primary screening: LPS-induced NO production (nitrite, Griess reaction) in Raw 264.7 macrophages; assay type: cell-based, mouse; conditions: for IC50: Mus musculus, RAW264.7, Raw 264.7 cell line; for Decrease (inhibition) of LPS-induced NO production: at the highest concentration tested; for % inhibition of LPS-induced NO production: at the highest non-cytotoxic concentration tested, nitrite in supernatants; for Effect on LPS-induced NO production / anti-inflammatory activity (in words): non-cytotoxic concentrations
Experimental: (§1) Raw 264.7 cells were plated at a density of 3 × 10^5 cells/mL and left to stabilize for up to 24 h.
(§2) This vehicle was used as control. Lipopolysaccharides from Escherichia coli 026:B6 (LPS; Sigma-Aldrich Co.) were dissolved in phosphate buffered saline (PBS). Recombinant human interleukin-1β (IL-1β; Peprotech, Rocky Hill, NJ, USA) was dissolved in PBS containing 0.1% Bovine Serum Albumin.
(§3) NO production was measured as the amount of nitrite accumulated in the culture supernatants using the Griess reaction which is based in the reaction of nitrite with sulfanilamide under acidic conditions, yielding a diazonium ion that couples to N-(1-napthtyl)ethylenediamine dihydrochloride to form a water-soluble red-violet azo dye that absorbs at 550 nm[51]. Briefly, equal volumes of culture supernatants and reagents [equal volumes of 1% (w/v) sulphanilamide in 5% (v/v) phosphoric acid and 0.1% (w/v) N-(1-napthtyl)ethylenediamine dihydrochloride] were mixed and incubated for 10 min, at room temperature, in the dark. The concentration of nitrite accumulated in the culture supernatants was calculated by interpolation of the absorbance of each sample, read in Biotek Synergy HT plate reader (Biotek), in a standard curve of sodium nitrite.

IL-1β = assay: LPS-induced IL-1β mRNA, pro-IL-1β protein and secreted IL-1β in Raw 264.7; assay type: cell-based, mouse
Experimental: Upon transcription, this mRNA is translated into a precursor protein (pro-IL-1β) that undergoes partial hydrolysis by a proteolytic complex, the inflammasome, being converted into the mature IL-1β protein which is then secreted.
Figure 3 (S)-(+)-carvone (4) and (R)-(−)-carvone (5) decrease LPS-induced IL-1β mRNA (a) and protein (b,c) levels in the Raw 264.7 cell line. Macrophage cultures were treated with 1 µg/mL LPS, for 6 h (a) or 18 h (b,c), following pre-treatment for 1 h with 666 µM of each test compound (a and c) or with the concentrations indicated in (b). Control cells (Ctrl) were treated with vehicle (0.1% DMSO) in the absence of LPS. Each column represents the mean ± SEM of, at least, three independent experiments. The blots shown are representative of, at least, three independent experiments and are cropped for clarity and conciseness. The corresponding full-length blots are presented in Fig. S3. *p < 0.05, **p < 0.01 and ****p < 0.0001 relative to LPS-treated cells. ^##p < 0.01, ^###p < 0.001 and ^####p < 0.0001 relative to the Ctrl. ^§p < 0.05 between the conditions indicated. MW: molecular weight marker.
as §2
Total RNA extraction and qRT-PCR were performed as described before. Briefly, total RNA was extracted using the NZYol (NZYTECH, Lisbon, Portugal) and quantified in a NanoDrop ND-1000 spectrophotometer at 260 nm. RNA purity was assessed by analysis of 260/230 and 260/280 absorption ratios. The cDNA was reverse-transcribed using NZY First Strand cDNA Synthesis Kit (NZYTECH), beginning with 2 µg of total RNA. qRT-PCR was performed, in duplicate for each sample, using NZYSpeedy qPCR Green Master Mix (2×) (NZYTECH) on CFX96 Real-Time PCR Detection System (Bio-Rad, Hercules, CA, USA).
Gene expression changes were analysed using the built-in CFX Manager software which enables the analysis of the results by the Pfaffl method, a variation of the ΔΔCT method corrected for gene-specific efficiencies. The results were normalized using Hprt1 as housekeeping gene.
(§4) Total cell extracts were prepared and western blot was performed as described before. Briefly, total (25 µg for Raw 264.7 cell line and 20 µg for human chondrocytes) proteins were separated by SDS-PAGE under reducing conditions and electrotransferred onto PVDF membranes. […] Immune complexes were detected with Enhanced ChemiFluorescence reagent (GE Healthcare) in the imaging system Thyphoon FLA 9000 (GE Healthcare). The membranes were reprobed with a mouse monoclonal anti-β-Tubulin I antibody (Sigma-Aldrich Co.), diluted at 1:20000, as a loading control, for 1 h at room temperature. Image analysis was performed with TotalLab TL120 software (Nonlinear Dynamics Ltd).
The concentration of IL-1β in the culture supernatants was measured using the Mouse IL-1β ELISA kit (ThermoScientific, Rockford, USA), following the manufacturer’s instructions.

NOS2 [2] = assay: NO production and NOS2 protein levels pre-induced by LPS (compound added after LPS removal) in Raw 264.7; assay type: cell-based, mouse; conditions: LPS 1 μg/mL 8 h, LPS removed, then 666 µM compound for 18 h
Experimental: Each column represents the mean ± SEM of, at least, three independent experiments. The blots shown are representative of, at least, three independent experiments and are cropped for clarity and conciseness.
as §3, §4

NOS2 [3] = assay: LPS-induced NOS2 mRNA (qRT-PCR) and protein (western blot) in Raw 264.7; assay type: cell-based, mouse; conditions: 1 h pre-treatment, Bay 11-7082 5 μM; for LPS-induced NOS2 mRNA levels: LPS 1 µg/mL 6 h, test compounds 666 µM; for LPS-induced NOS2 protein levels: LPS 1 µg/mL 18 h
Experimental: Macrophage cultures were treated with 1 µg/mL LPS, for 6 h (a) or 18 h (b), following pre-treatment for 1 h with 666 µM of each test compound (a) or with the concentrations indicated in (b). […] Control cells (Ctrl) were treated with the vehicle (0.1% DMSO) in the absence of LPS. Each column represents the mean ± SEM of four independent experiments. The blots shown are representative of, at least, three independent experiments and are cropped for clarity and conciseness.
Total RNA extraction and qRT-PCR were performed as described before[52]. Briefly, total RNA was extracted using the NZYol (NZYTECH, Lisbon, Portugal) and quantified in a NanoDrop ND-1000 spectrophotometer at 260 nm. RNA purity was assessed by analysis of 260/230 and 260/280 absorption ratios. The cDNA was reverse-transcribed using NZY First Strand cDNA Synthesis Kit (NZYTECH), beginning with 2 µg of total RNA. qRT-PCR was performed, in duplicate for each sample, using NZYSpeedy qPCR Green Master Mix (2×) (NZYTECH) on CFX96 Real-Time PCR Detection System (Bio-Rad, Hercules, CA, USA).
Gene expression changes were analysed using the built-in CFX Manager software which enables the analysis of the results by the Pfaffl method, a variation of the ΔΔCT method corrected for gene-specific efficiencies[53]. The results were normalized using Hprt1 as housekeeping gene.
Total cell extracts were prepared and western blot was performed as described before[54]. Briefly, total (25 µg for Raw 264.7 cell line and 20 µg for human chondrocytes) proteins were separated by SDS-PAGE under reducing conditions and electrotransferred onto PVDF membranes. […] Immune complexes were detected with Enhanced ChemiFluorescence reagent (GE Healthcare) in the imaging system Thyphoon FLA 9000 (GE Healthcare). The membranes were reprobed with a mouse monoclonal anti-β-Tubulin I antibody (Sigma-Aldrich Co.), diluted at 1:20000, as a loading control, for 1 h at room temperature. Image analysis was performed with TotalLab TL120 software (Nonlinear Dynamics Ltd).

Raw 264.7 cells = assay: Cytotoxicity by resazurin reduction assay in Raw 264.7 cells; assay type: cell-based, mouse; conditions: viability not decreased by more than 30% relative to LPS alone (ISO 10993-5), LPS 1 µg/mL 18 h
Experimental: Various concentrations of the test compounds, in the absence or presence of LPS, were first evaluated for cytotoxicity using the resazurin reduction assay[26]
as §1
Resazurin is a redox dye used as an indicator of cellular metabolic activity for various applications, namely cell viability, proliferation and toxicity. The assay is based on the intracellular reduction of the non-fluorescent resazurin to resorufin (a fluorescent and pink coloured compound) by mitochondrial or microsomal enzymes that use NADH or NADPH as electron sources. Since only metabolically active cells can reduce the dye, the increase in fluorescence or absorbance is directly proportional to the number of viable cells[26],[50].
To select non-cytotoxic concentrations of the test compounds, the resazurin solution was added to each well to a final concentration of 50 µM, 90 min before the end of the treatment period indicated in the figure legends. Then, absorbances at 570 nm and 620 nm (reference wavelength) were read in a Biotek Synergy HT plate reader (Biotek, Winooski, VT, USA).

human chondrocytes [4] = assay: IL-1β-induced NOS2 protein, NO production and pro-IL-1β protein in primary human chondrocytes; assay type: cell-based; conditions: IL-1β 10 ng/mL 24 h, carvone 666 or 1331 µM, Bay 11-7082 5 µM
Experimental: The cells were treated with 10 ng/mL IL-1β for 24 h (a, b, c and d), following pre-treatment for 1 h with 666 or 1331 µM of (S)-(+)-carvone (4). As a positive control, the cells were similarly treated with 5 μM Bay 11-7082 (b and c). Control cells (Ctrl) were treated with the vehicle (0.1% DMSO) in the absence of IL-1β. Each column represents the mean ± SEM of, at least, three independent experiments. The blots shown are representative of, at least, three independent experiments and are cropped for clarity and conciseness.
Briefly, cartilage shavings underwent sequential digestion with Pronase (Roche, Indianapolis, IN, USA) and collagenase A (Roche, Indianapolis, IN, USA). To avoid chondrocyte dedifferentiation, non-proliferating monolayer cultures were setup by plating 1× 10^6 chondrocytes/mL in HAM: F12 medium containing 3% antibiotics and 5% FBS and allowed to recover for 24 h at 37 °C in a humidified atmosphere with 5% CO2. Prior to any treatments, chondrocytes were serum-starved overnight and thereafter maintained in culture medium without FBS.
This vehicle was used as control. […] Recombinant human interleukin-1β (IL-1β; Peprotech, Rocky Hill, NJ, USA) was dissolved in PBS containing 0.1% Bovine Serum Albumin.
Total cell extracts were prepared and western blot was performed as described before[54]. […] Immune complexes were detected with Enhanced ChemiFluorescence reagent (GE Healthcare) in the imaging system Thyphoon FLA 9000 (GE Healthcare). The membranes were reprobed with a mouse monoclonal anti-β-Tubulin I antibody (Sigma-Aldrich Co.), diluted at 1:20000, as a loading control, for 1 h at room temperature. Image analysis was performed with TotalLab TL120 software (Nonlinear Dynamics Ltd).

human chondrocytes [5] = test system: human chondrocytes; parameters: method as in PMID 25622554; conditions: limonene up to 200 μg/mL, β-myrcene up to 50 μg/mL; cited from earlier work
Raw 264.7 cell line = test system: Raw 264.7 cell line; parameters: method as in PMID 20625233, PMID 23541436; conditions: concentrations much higher than in the current study; cited from earlier work

Row | Structure (SMILES) | Decrease (inhibition) of LPS-induced NO production ([1]; Raw 264.7) | % inhibition of LPS-induced NO production ([1]; Raw 264.7) | Highest non-cytotoxic concentration tested (Raw 264.7 cells) | Effect on LPS-induced NO production / anti-inflammatory activity (in words) ([1]; Raw 264.7) | also measured
1 | C=C(C)[C@@H]1CC=C(C)C(=O)C1 [(R)-(−)-carvone (5), (R)-(−)-carvone] | greater than 30% | 71.50 ± 1.74 % ± SEM | 666 µM and 100 µg/mL |  | IC50 [1]: 123 µM and 18.5 µg/mL; LPS-induced IL-1β mRNA levels (IL-1β; LPS 1 µg/mL 6 h, 1 h pre-treatment with 666 µM): significantly reduced; mature IL-1β secreted into the cell culture medium (IL-1β; LPS 1 µg/mL 18 h, 666 µM, ELISA, relative to LPS alone): significantly decreased; pro-IL-1β protein levels (IL-1β; LPS 1 µg/mL 18 h, relative to LPS alone): significantly decreased; Decrease of NO production (NOS2 [2]): approximately 30%; Reduction of NOS2 protein levels (NOS2 [2]): approximately 60%; LPS-induced NOS2 mRNA levels (NOS2 [3]): significantly reduced; LPS-induced NOS2 protein levels (NOS2 [3]): significantly reduced
2 | CC1=CC[C@H](C(C)(C)O)CC1=O [(S)-8-hydroxycarvotanacetone (20), (S)-5-(2-hydroxypropan-2-yl)-2-methylcyclohex-2-en-1-one] | greater than 30% | 78.43 ± 1.60 % ± SEM | 2378 µM and 400 µg/mL | significant activity | IC50 [1]: 762 µM and 116 µg/mL
3 | CC(C)=C1CC[C@H](C)CC1=O [(S)-(−)-pulegone (13), (S)-(−)-pulegone] |  | 35.60 ± 4.86 % ± SEM | 2628 µM and 400 µg/mL | weak activity | 
4 | C=C(C)[C@@H]1CC[C@@H](C)[C@H](O)C1 [(−)-dihydrocarveol (9), (−)-dihydrocarveol] | greater than 30% | 62.03 ± 8.62 % ± SEM | 2593 µM and 400 µg/mL |  | IC50 [1]: 2.14 mM and 330 µg/mL
5 | C=C(C)[C@@H]1CC[C@@H](C)C[C@H]1O [(−)-isopulegol (11), (−)-isopulegol] |  | −12.63 ± 1.30 % ± SEM | 2593 µM and 400 µg/mL | inactive | Effect on LPS-induced NO production / anti-inflammatory activity (in words) ([1]; Raw 264.7, listed as 11): no effect
6 | CC(C)[C@@H]1CC[C@@H](C)C[C@H]1O [(−)-menthol (15), (−)-menthol] |  | −6.90 ± 1.24 % ± SEM | 2560 µM and 400 µg/mL | no effect | 
7 | CC(C)[C@@H]1CC[C@@H](C)CC1=O [(−)-menthone (14), (−)-menthone] |  | −9.88 ± 2.85 % ± SEM | 1297 µM and 200 µg/mL | no effect | 
8 | Cc1ccc(S(=O)(=O)/C=C/C#N)cc1 [Bay 11-7082, reference compound] |  |  |  |  | NO production relative to cells treated with LPS alone ([1]; pre-treatment with 5 μM, Raw 264.7): 48.1 ± 5.2%; IL-1β-induced NO production (human chondrocytes [4]): significantly decreased; IL-1β-induced NOS2 protein levels (human chondrocytes [4]): significantly decreased; LPS-induced NOS2 mRNA levels (NOS2 [3]): decreased; LPS-induced NOS2 protein levels (NOS2 [3]): decreased
9 | Cc1ccc(C(C)C)cc1O [carvacrol (18), carvacrol] | less than 20% | 10.78 ± 1.34 % ± SEM | 33 µM and 5 µg/mL | almost no activity | 
10 | C=C(C)[C@H]1CC=C(C)CC1 [limonene] |  |  |  |  | Anti-inflammatory effects (human chondrocytes [5]): Significant anti-inflammatory effects; Anti-inflammatory effects (Raw 264.7 cell line): Significant anti-inflammatory effects
11 | Cc1ccc(C(C)C)cc1 [p-cymene (17), p-cymene] | less than 20% | 8.50 ± 5.53 % ± SEM | 37 µM and 5 µg/mL | showed no activity | 
12 | Cc1ccc(C(C)C)c(O)c1 [thymol (19), thymol] | less than 20% | 8.93 ± 1.91 % ± SEM | 83 µM and 12.5 µg/mL | showed no activity | 
13 | C=CC(=C)CCC=C(C)C [β-myrcene (16), β-myrcene] |  | 16.48 ± 17.00 % ± SEM | 183 µM and 25 µg/mL | showed no activity | Anti-inflammatory effects (human chondrocytes [5]): Significant anti-inflammatory effects; Effect on LPS-induced NO production / anti-inflammatory activity (in words) ([1]; Raw 264.7, listed as 16): no effect; also recorded: Neither the more rigid (17–19), nor the more flexible (16) of these four compounds showed any activity; Anti-inflammatory effects (Raw 264.7 cell line): Significant anti-inflammatory effects
